This test deals with T1, Androgen receptor (Homo sapiens, UniProt P10275).
T1 sequence (P10275 whole entry): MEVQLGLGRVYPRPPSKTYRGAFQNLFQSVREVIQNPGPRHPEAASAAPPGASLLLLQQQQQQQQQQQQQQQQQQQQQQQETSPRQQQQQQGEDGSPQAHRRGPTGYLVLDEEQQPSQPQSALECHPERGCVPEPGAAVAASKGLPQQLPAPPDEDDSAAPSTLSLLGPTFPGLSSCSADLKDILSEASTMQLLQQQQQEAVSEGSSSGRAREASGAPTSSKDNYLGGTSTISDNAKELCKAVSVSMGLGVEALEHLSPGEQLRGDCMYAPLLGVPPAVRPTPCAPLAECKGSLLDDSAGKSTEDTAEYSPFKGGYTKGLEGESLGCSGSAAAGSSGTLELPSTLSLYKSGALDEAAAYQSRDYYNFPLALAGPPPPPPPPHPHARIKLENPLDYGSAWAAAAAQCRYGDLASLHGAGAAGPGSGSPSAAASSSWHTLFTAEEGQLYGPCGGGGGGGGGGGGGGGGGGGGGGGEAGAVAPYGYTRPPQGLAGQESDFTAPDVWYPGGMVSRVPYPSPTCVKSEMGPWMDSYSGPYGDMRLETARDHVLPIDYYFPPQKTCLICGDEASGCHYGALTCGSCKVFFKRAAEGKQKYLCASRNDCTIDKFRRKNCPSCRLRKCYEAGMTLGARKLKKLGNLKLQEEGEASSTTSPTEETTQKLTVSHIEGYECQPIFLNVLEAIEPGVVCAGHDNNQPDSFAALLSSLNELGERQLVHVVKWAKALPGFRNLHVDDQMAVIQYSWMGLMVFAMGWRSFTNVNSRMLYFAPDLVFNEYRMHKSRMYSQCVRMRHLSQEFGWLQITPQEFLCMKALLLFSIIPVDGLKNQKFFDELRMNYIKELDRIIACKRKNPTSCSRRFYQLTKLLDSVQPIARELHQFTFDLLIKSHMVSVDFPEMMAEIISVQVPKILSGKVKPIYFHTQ
In words: Inhibition of androgen receptor in human VCaP cells expressing GRE-2-TATA-Luc co-expressing firefly luciferase incubated for 24 hrs in presence of DHT by luciferase reporter gene assay. Type of test: cell-based. In general terms: Reporter assays use an easily measured gene product as a stand-in for the process of interest.

The IC50 is the midpoint of a concentration-inhibition curve.

On to `CSc1ccc(C(N)=O)cc1-c1ccc2cnccc2c1`, for which the half-maximal inhibitory concentration (IC50) is 800 nM.

The values are drawn from ChEMBL document CHEMBL5370692, “Synthesis and Evaluation of Small Molecule Inhibitors of the Androgen Receptor N-Terminal Domain” (ACS Med Chem Lett, 2023).
